Reference: US11007200B2, “Cycloalkyl-diamines for the treatment of pain” (MediSynergics, LLC, priority 2019, dated 2021)
Structures can show the parent of a compound that is named as a salt.

Key:
Sigma-2 = Sigma-2 Ki determination (NIMH-PDSP); format: binding; settings: standard drug haloperidol
Method: (§1) The compounds from the above Examples were tested for Sigma-1 and Sigma-2 activity. Ki determinations were generously provided by the National Institute of Mental Health's Psychoactive Drug Screening Program (PDSP), Contract #HHSN-272-2013-000017-C(NIMH-PDSP). The NIMH-PDSP is directed by Bryan L Roth MD, PhD at the University of North Carolina at Chapel Hill, N.C. and Project Officer Jamie Driscoll at NIMH, Bethesda, Md., USA. Procedures employed by the PDSP as described in the NIMH-PDSP Assay Protocol Book, Version II. The standard drug used in both Sigma subtype assays is haloperidol.

Sigma-1 = Sigma-1 Ki determination (NIMH-PDSP); format: binding; settings: standard drug haloperidol
Method: as §1

Structure (SMILES) | Ki (Sigma-2) [nM] | Ki (Sigma-1) [nM]
CN[C@]1(c2ccccc2Cl)CCCC[C@@H]1NCCCN1CCCC1 (relative stereo) [Example 2a, Cis-(1S,2S)-1-(2-chlorophenyl)-N^1-methyl-N^2-[3-(pyrrolidin-1-yl)propyl]-cyclohexane-1,2-diamine trihydrochloride] | 59.8 | 17.3
CN[C@]1(c2ccccc2Cl)CCCC[C@H]1NCCCN1CCCC1 (relative stereo) [Example 2b, Trans-(1S,2R)-1-(2-chlorophenyl)-N^1-methyl-N^2-[3-(pyrrolidin-1-yl)propyl]-cyclohexane-1,2-diamine trihydrochloride] | 305 | 37.2
CN[C@]1(c2ccccc2Cl)CCCC[C@@H]1NCCCc1ccc(F)cc1 (relative stereo) [Example 3a, Cis-(1S,2S)-1-(2-chlorophenyl)-N^2-[3-(4-fluorophenyl)propyl]-N^1-methyl-cyclohexane-1,2-diamine dihydrochloride] | 18 | 35.4
CN[C@]1(c2ccccc2Cl)CCCC[C@H]1NCCCc1ccc(F)cc1 (relative stereo) [Example 3b, Trans-(1S,2R)-1-(2-chlorophenyl)-N^2-[3-(4-fluorophenyl)propyl]-N^1-methyl-cyclohexane-1,2-diamine dihydrochloride] | 675 | 217
CN[C@]1(c2ccccc2Cl)CCCC[C@@H]1NCCCc1ccccc1 (relative stereo) [Example 4a, Cis-(1S,2S)-1-(2-chlorophenyl)-N^1-methyl-N^2-(3-phenylpropyl)cyclohexane-1,2-diamine dihydrochloride] | 15.5 | 97.2
CN[C@]1(c2ccccc2Cl)CCCC[C@H]1NCCCc1ccccc1 (relative stereo) [Example 4b, Trans-(1S,2R)-1-(2-chlorophenyl)-N^1-methyl-N^2-(3-phenylpropyl)cyclohexane-1,2-diamine dihydrochloride] | 426 | 697
CN[C@]1(c2ccccc2Cl)CCCC[C@@H]1NCCCN1CCN(C)CC1 (relative stereo) [Example 13a, Cis-(1S,2S)-1-(2-chlorophenyl)-N^1-methyl-N^2-(3-(4-methylpiperazin-1-yl)propyl)cyclohexane-1,2-diamine tetrahydrochloride] | 98 | 70
CN[C@]1(c2ccccc2Cl)CCCC[C@H]1NCCCN1CCN(C)CC1 (relative stereo) [Example 13b, Trans-(1S,2R)-1-(2-chlorophenyl)-N^1-methyl-N^2-(3-(4-methylpiperazin-1-yl)propyl)cyclohexane-1,2-diamine tetrahydrochloride] | 435 | 146
